Measured values: patent US20210227814A1, “A TRANSGENIC INVERTEBRATE MODEL FOR ALZHEIMER'S DISEASE AND USE THEREOF” (National Center for Geriatrics and Gerontology, priority 2017, published 2021)

Key:
Type in all cases: in vivo
[1] = test system: transgenic Drosophila expressing GALT6 and SAT1; assay: LC-MS of GM3 ganglioside production in transgenic Drosophila; conditions: Neu5Ac feeding (+) vs (−), 10 mM Neu5Ac/150 mM sucrose solution, heads of adults
Experimental: The obtained Drosophila strains were grown on Ebios Cornmeal Sucrose Agar medium at a temperature of 25° C., and in a light-dark cycle of 12 hours. In order to provide a sialic acid donor substrate Neu5Ac, Drosophila was allowed to freely lick filter paper soaked with a 10 mM Neu5Ac/150 mM sucrose solution for 24 hours every other day for 1 to 2 weeks. In order to check whether GM3 ganglioside is produced in the transgenic Drosophila strains prepared, liquid chromatography mass spectrometry (LC-MS) was carried out. The spectrometry was carried out with respect to the following Drosophila strains: (1) wild type (Neu5Ac feeding (−)) (negative control) (2) transgenic Drosophila expressing GALT6 alone (Neu5Ac feeding (−)), (3) transgenic Drosophila expressing GALT6 and SAT1 (Neu5Ac feeding (−)), (4) transgenic Drosophila expressing GALT6 and SAT1 (Neu5Ac feeding (+)), (5) transgenic Drosophila expressing SAT1 alone (Neu5Ac feeding (+)), and (6) transgenic Drosophila expressing GALT6, SAT1 and GNE (Neu5Ac feeding (−)). For each of the transgenic Drosophila strains, 200 to 1000 heads of adults were collected. To the heads, TBS buffer (50 mM Tris-HCl (pH7.6), 150 mM NaCl) was added, and the mixture was homogenized, and then dried. The obtained pellet was suspended in a solution mixture of chloroform: methanol (v/v=2:1) and a lipid extraction liquid was collected. […]

[2] = test system: transgenic Drosophila strains expressing Dut40; assay: Western blotting of aggregated Aβ in Drosophila expressing only Dut40; conditions: Neu5Ac feeding (−) or (+); flies expressing Dut40 only
[3] = test system: transgenic Drosophila strain expressing GALT6, SAT1 and Dut40; assay: Western blotting of aggregated Aβ (TBS insoluble fraction) in brain tissue; conditions: Neu5Ac feeding (+) compared to (−), GALT6, SAT1 and Dut40 flies
Experimental: The obtained Drosophila strains were grown on Ebios Cornmeal Sucrose Agar medium at a temperature of 25° C., and in a light-dark cycle of 12 hours. In order to provide a sialic acid donor substrate Neu5Ac, Drosophila was allowed to freely lick filter paper soaked with a 10 mM Neu5Ac/150 mM sucrose solution for 24 hours every other day for 1 to 2 weeks. To confirm whether of GM3 ganglioside-dependent aggregated Aβ is accumulated in the transgenic Drosophila co-expressing GM3 ganglioside and Dut40, a sample prepared from the brain tissue of a transgenic Drosophila strain expressing GALT6, SAT1 and Dut40, was subjected to western blotting. From 100 heads of adults of each of the transgenic Drosophila strain expressing GALT6, SAT1 and Dut40 (Neu5Ac feeding (−)) and the transgenic Drosophila expressing GALT6, SAT1 and Dut40 (Neu5Ac feeding (+)), were collected, homogenized in TBS buffer and subjected to ultracentrifugation (100,000 g, one hour, 4° C.). The supernatant was collected (TBS soluble fraction). The remaining sediment was again homogenized in 100% formic acid and centrifuged (14,000 rpm, 20 minutes, 25° C.) to remove unnecessary components. […] Bands were detected by ECL western blotting detection system (GE Healthcare Life Sciences). The bands detected were analyzed by Image Analysis Software (ImageJ, made by the National Institutes of Health) to convert into numerical values. […]

With `CC(=O)N[C@H]1[C@H]([C@@H](O)[C@@H](O)CO)O[C@@](O)(C(=O)O)C[C@@H]1O` [Neu5Ac] the “production of GM3 ganglioside” value [1] was “confirmed”, the “effect on the aggregation of Dut40” value [2] was “does not have an effect” and the “amount of aggregated Dut40” value [3] was “increased”.
